This assay addresses Ab-7^123 dl-Met complex (epinephrine type catecholamine antibody). Description: Antibody specificity: 50% inhibition of antibody-labelled dl-metanephrine complex (competitive binding radioimmunoassay). Details: species or system rabbit. Particulars: amount for 50% inhibition; incubation volume 0.5 or 1.0 ml. The method, then:
The specificity of an epinephrine type catecholamine antibody suitable for use in the practice of the present method is set forth below in Table 1:
For immunization of rabbits, 10 mg. of each of the products of Example 8 or Example 9 was dissolved in 1 ml. of phosphate buffered saline and emulsified with 1 ml. of complete Freund's adjuvant. The second inoculation was given three weeks later and consisted of 1.5 mg. immunogen in 1 ml. PBS emulsified with 1 ml. of complete Freund's adjuvant. The third injection, five weeks after the first, employed the same concentration of antigen but was in incomplete Freund's adjuvant. Immunizations were by the subcutaneous route.
A competitive binding radioimmunoassay procedure is used similar to that described in U.S. Pat. No. 3,704,282. An incubation volume of either 0.5 or 1.0 ml. is used and antibody-label complex is separated from free label by precipitation with saturated
Consider `CNCC(O)c1ccc(O)c(OC)c1` (racemic) [dl-Metanephrine], for which the “50 % INHIBITION OF Ab-7^123 dl-Met OMPLEX” value turned out to be 0.050 ng.

In the case of `CNCC(O)c1ccc(O)cc1` (racemic) [dl-Synephrine], the “50 % INHIBITION OF Ab-7^123 dl-Met OMPLEX” value was 0.100 ng. Then `CNC(C)Cc1ccccc1` (stereo not shown) [Methamphetamine], with greater than 500 ng. Then `CC(N)Cc1ccccc1` (stereo not shown) [Amphetamine], with greater than 500 ng; and `NCCc1c[nH]c2ccc(O)cc12` [Sezotosin], with greater than 500 ng; and `CNCCc1ccc(O)c(O)c1` [Epinine], with 0.350 ng. For `CNC[C@H](O)c1ccc(O)c(O)c1` [1-Epinephrine], the “50 % INHIBITION OF Ab-7^123 dl-Met OMPLEX” value was 0.250 ng. Then `CNC(C)C(O)c1ccccc1` (stereo not shown) [Ephedrine], with greater than 500 ng. Then `CC(C)NCC(O)c1ccc(O)c(O)c1` (stereo not shown) [Isoproterenol], with greater than 500 ng.

For the molecule `NCCc1ccc(O)c(O)c1` [Dopamine], the “50 % INHIBITION OF Ab-7^123 dl-Met OMPLEX” value was greater than 500 ng. `CNC[C@H](O)c1cccc(O)c1` [1-Phenylephrine]: the “50 % INHIBITION OF Ab-7^123 dl-Met OMPLEX” value came out at 0.060 ng. Take `N[C@@H](Cc1ccc(O)c(O)c1)C(=O)O` [DOPA]: the “50 % INHIBITION OF Ab-7^123 dl-Met OMPLEX” value was greater than 500 ng. On to `NC[C@H](O)c1ccc(O)c(O)c1` [1-Norepinephrine], for which the “50 % INHIBITION OF Ab-7^123 dl-Met OMPLEX” value is greater than 500 ng.

The values above are taken from US4108973A, “Immunoassay for catecholamines” (Hoffmann-La Roche Inc., priority 1976, dated 1978).
